Test results from ChEMBL document CHEMBL5226375, “Synthesis and Comprehensive in Vivo Activity Profiling of Olean-12-en-28-ol, 3β-Pentacosanoate in Experimental Autoimmune Encephalomyelitis: A Natural Remyelinating and Anti-Inflammatory Agent” (J Nat Prod, 2023).
The source made the active and inactive calls. The rule behind the calls is not given here.

Key:
[1] = test system: Mus musculus; test: Anti-inflammatory activity against MOG35-55-induced experimental autoimmune encephalomyelitis C57BL/6 mouse model assessed as fold change in H2EB1 (HLA-DRB1) gene expression in brain at 0.15 mg/kg/day, ig for 14 days starting from 12th day of immunization by RT-qPCR analysis relative to control; type: functional; details: time 14 day
[2] = test system: Mus musculus; test: Anti-inflammatory activity against MOG35-55-induced experimental autoimmune encephalomyelitis C57BL/6 mouse model assessed as methylation of CpG sites of IL17A gene promoter in brain at […], ig for 14 days starting from 12th day of immunization by PCR analysis (reference value: 58 +/-6%); type: functional; details: time 14 day
[3] = test system: Mus musculus; test: Anti-inflammatory activity against MOG35-55-induced experimental autoimmune encephalomyelitis C57BL/6 mouse model assessed as fold change in CCL5 gene expression in brain at 0.15 mg/kg/day, ig for 14 days starting from 12th day of immunization by RT-qPCR analysis relative to control; type: functional; details: time 14 day
[4] = test system: Mus musculus; test: Anti-inflammatory activity against MOG35-55-induced experimental autoimmune encephalomyelitis C57BL/6 mouse model assessed as reduction in serum Th1 cytokine level by measuring reduction in TNF-alpha level at 0.3 mg/kg/day, ig for 14 days starting from 12th day of immunization by ELISA; type: functional, organism-based; details: time 14.0 day
[5] = test system: Mus musculus; test: Anti-inflammatory activity against MOG35-55-induced experimental autoimmune encephalomyelitis C57BL/6 mouse model assessed as reduction in serum chemokines level by measuring reduction in CCL5 level at 0.3 mg/kg/day, ig for 14 days starting from 12th day of immunization by ELISA; type: functional, organism-based; details: time 14.0 day
[6] = test system: Mus musculus; test: Anti-inflammatory activity against MOG35-55-induced experimental autoimmune encephalomyelitis C57BL/6 mouse model assessed as reduction in serum […] cytokine level by measuring reduction in IL-17 level at 0.3 mg/kg/day, ig for 14 days starting from 12th day of immunization by ELISA; type: functional, organism-based; details: time 14.0 day
[7] = test system: Mus musculus; test: Anti-inflammatory activity against MOG35-55-induced experimental autoimmune encephalomyelitis C57BL/6 mouse model assessed as reduction in EAE symptoms by measuring reduction in clinical score at 0.15 to 0.3 mg/kg/day, ig starting from 12th day of immunization and measured on day 14 post-immunization; type: functional, organism-based; details: dose 0.15-0.3 mg/kg/day, time 2.0 day
[8] = test system: Mus musculus; test: Anti-inflammatory activity against MOG35-55-induced experimental autoimmune encephalomyelitis C57BL/6 mouse model assessed as methylation of CpG sites of IL11 gene promoter in brain at […], ig for 14 days starting from 12th day of immunization by PCR analysis (reference value: 61.1 +/-4%); type: functional; details: time 14 day
[9] = test system: Mus musculus; test: Anti-inflammatory activity against MOG35-55-induced experimental autoimmune encephalomyelitis C57BL/6 mouse model assessed as fold change in MAG gene expression in brain at 0.3 mg/kg/day, ig for 14 days starting from 12th day of immunization by RT-qPCR analysis relative to control; type: functional; details: time 14 day
[10] = test system: Mus musculus; test: Anti-inflammatory activity against MOG35-55-induced experimental autoimmune encephalomyelitis C57BL/6 mouse model assessed as fold change in C1S gene expression in brain at 0.3 mg/kg/day, ig for 14 days starting from 12th day of immunization by RT-qPCR analysis relative to control; type: functional; details: time 14 day
[11] = test system: Mus musculus; test: Anti-inflammatory activity against MOG35-55-induced experimental autoimmune encephalomyelitis C57BL/6 mouse model assessed as fold change in MBP gene expression in brain at 0.3 mg/kg/day, ig for 14 days starting from 12th day of immunization by RT-qPCR analysis relative to control; type: functional; details: time 14 day
[12] = test system: Mus musculus; test: Anti-inflammatory activity against MOG35-55-induced experimental autoimmune encephalomyelitis C57BL/6 mouse model assessed as fold change in STAT3 gene expression in brain at 0.15 mg/kg/day, ig for 14 days starting from 12th day of immunization by RT-qPCR analysis relative to control; type: functional; details: time 14 day
[13] = test system: Mus musculus; test: Anti-inflammatory activity against MOG35-55-induced experimental autoimmune encephalomyelitis C57BL/6 mouse model assessed as reduction in serum chemokines level by measuring reduction in IL-3 level at 0.3 mg/kg/day, ig for 14 days starting from 12th day of immunization by ELISA; type: functional, organism-based; details: time 14.0 day
[14] = test system: Mus musculus; test: Anti-inflammatory activity against MOG35-55-induced experimental autoimmune encephalomyelitis C57BL/6 mouse model assessed as proportion of brain infiltrating cells expressing CD45+/CD11b/c high surface markers at 600 mg/kg/day, ig for 14 days starting from 12th day of immunization by flow cytometry (reference value: 87.7%); type: functional; details: time 14 day
[15] = test system: Mus musculus; test: Anti-inflammatory activity against MOG35-55-induced experimental autoimmune encephalomyelitis C57BL/6 mouse model assessed as methylation of CpG sites of IL17A gene promoter in brain at 600 mg/kg, ig for 14 days starting from 12th day of immunization by PCR analysis (reference value: 58 +/-6%); type: functional; details: time 14 day
[16] = test system: Mus musculus; test: Anti-inflammatory activity against MOG35-55-induced experimental autoimmune encephalomyelitis C57BL/6 mouse model assessed as reduction in serum Th1 cytokine level by measuring reduction in IFNG level at 600 mg/kg/day, ig for 14 days starting from 12th day of immunization by ELISA; type: functional, organism-based; details: time 14.0 day
[17] = test system: Mus musculus; test: Anti-inflammatory activity against MOG35-55-induced experimental autoimmune encephalomyelitis C57BL/6 mouse model assessed as reduction in serum chemokines level by measuring reduction in FASL level at 600 mg/kg/day, ig for 14 days starting from 12th day of immunization by ELISA; type: functional, organism-based; details: time 14.0 day
[18] = test system: Mus musculus; test: Anti-inflammatory activity against MOG35-55-induced experimental autoimmune encephalomyelitis C57BL/6 mouse model assessed as increase in brain IL-10 level at 600 mg/kg/day, ig for 14 days starting from 12th day of immunization by ELISA; type: functional, organism-based; details: time 14.0 day
[19] = test system: Mus musculus; test: Anti-inflammatory activity against MOG35-55-induced experimental autoimmune encephalomyelitis C57BL/6 mouse model assessed as methylation of CpG sites of IL18 gene promoter in brain at 600 mg/kg, ig for 14 days starting from 12th day of immunization by PCR analysis (reference value: 29.2 +/-8%); type: functional; details: time 14 day
[20] = test system: Mus musculus; test: Anti-inflammatory activity against MOG35-55-induced experimental autoimmune encephalomyelitis C57BL/6 mouse model assessed as reduction in serum monokines level by measuring reduction in IL-1B level at 600 mg/kg/day, ig for 14 days starting from 12th day of immunization by ELISA; type: functional, organism-based; details: time 14.0 day
[21] = test system: Mus musculus; test: Anti-inflammatory activity against MOG35-55-induced experimental autoimmune encephalomyelitis C57BL/6 mouse model assessed as fold change in CXCL10 gene expression in brain at 600 mg/kg/day, ig for 14 days starting from 12th day of immunization by RT-qPCR analysis relative to control; type: functional; details: time 14 day
[22] = test system: Mus musculus; test: Anti-inflammatory activity against MOG35-55-induced experimental autoimmune encephalomyelitis C57BL/6 mouse model assessed as reduction in TNF-alpha protein expression in brain at 300 to 600 mg/kg/day, ig for 14 days starting from 12th day of immunization by western blot analysis; type: functional, organism-based; details: dose 300-600 mg/kg/day, time 14.0 day
[23] = test system: Mus musculus; test: Anti-inflammatory activity against MOG35-55-induced experimental autoimmune encephalomyelitis C57BL/6 mouse model assessed as fold change in IL6 gene expression in brain at 600 mg/kg/day, ig for 14 days starting from 12th day of immunization by RT-qPCR analysis relative to control; type: functional; details: time 14 day

Compound: CCCCCCCCc1ccc(CCC(N)(CO)CO)cc1 [FINGOLIMOD]
- fold change (FC) [1]: 3.85
- Activity [2]: 58.9%
- fold change (FC) [3]: 4.46
- Activity [4]: Active
- Activity [5]: Active
- Activity [6]: Active
- Activity [7]: Active
- Activity [8]: 36.2%
- fold change (FC) [9]: -3.16
- fold change (FC) [10]: 2.12
- fold change (FC) [11]: 2.28
- fold change (FC) [12]: 1.96
- Activity [13]: Active

Compound: CCCCCCCCCCCCCCCCCCCCCCCCC(=O)O[C@H]1CC[C@]2(C)[C@H]3CC=C4[C@@H]5CC(C)(C)CC[C@]5(CO)CC[C@@]4(C)[C@]3(C)CC[C@H]2C1(C)C
- Activity [14]: 66.2%
- Activity [15]: 68.3%
- Activity [16]: Active
- Activity [17]: Active
- Activity [18]: Active
- Activity [19]: 40.5%
- Activity [20]: Active
- fold change (FC) [21]: 1.93
- Activity [22]: Active
- fold change (FC) [23]: -2.32
